Measurements as given in publication PMC9898036, “VIP152 is a selective CDK9 inhibitor with pre-clinical in vitro and in vivo efficacy in chronic lymphocytic leukemia” (Leukemia, 2022).
Read-outs that look alike come from different tables or passages of the source.

Key:
HG-3 = test: MTS proliferation assay; format: cell-based
Adrenergic α1B = Adrenergic α1B (Rattus norvegicus, UniProt P15823); test: Eurofins Diversity Panel; format: binding; conditions: Conc. 10 μM
Adrenergic α1D = Adrenergic α1D (Homo sapiens, UniProt P25100); test: Eurofins Diversity Panel; format: binding; conditions: hum, Conc. 10 μM
Bradykinin B2 = Bradykinin B2 (Homo sapiens, UniProt P30411); test: Eurofins Diversity Panel; format: binding; conditions: hum, Conc. 10 μM
[1] = molecular target: Leukotriene, Cysteinyl CysLT1 (Homo sapiens, UniProt Q9Y271); test: Eurofins Diversity Panel; format: binding; conditions: hum, Conc. 10 μM
PFCDPK1(P.falciparum) = PFCDPK1(P.falciparum) (Plasmodium falciparum, UniProt P62344); test: DiscoverX KINOMEscan kinase profiling: PFCDPK1(P.falciparum); format: binding; conditions: PFCDPK1(P.falciparum) (Entrez CDPK1); 100 nM; read-out: Percent Control
[2] = molecular target: RSK2(Kin.Dom.1-N-terminal) (Homo sapiens, UniProt P51812); test: KINOMEscan: RSK2(Kin.Dom.1-N-terminal); format: binding; conditions: 100 nM, read-out: Percent Control
SGK = SGK (Homo sapiens, UniProt O00141); test: KINOMEscan: SGK; format: binding; conditions: 100 nM, read-out: Percent Control
SLK = SLK (Homo sapiens, UniProt Q9H2G2); test: KINOMEscan: SLK; format: binding; conditions: 100 nM, read-out: Percent Control
TXK = TXK (Homo sapiens, UniProt P42681); test: KINOMEscan: TXK; format: binding; conditions: 100 nM, read-out: Percent Control
YANK2 = YANK2 (Homo sapiens, UniProt Q9NY57); test: KINOMEscan: YANK2; format: binding; conditions: 100 nM, read-out: Percent Control
YSK4 = YSK4 (Homo sapiens, UniProt Q56UN5); test: KINOMEscan: YSK4; format: binding; conditions: 100 nM, read-out: Percent Control
Chain of YSK4 (Q56UN5 whole entry): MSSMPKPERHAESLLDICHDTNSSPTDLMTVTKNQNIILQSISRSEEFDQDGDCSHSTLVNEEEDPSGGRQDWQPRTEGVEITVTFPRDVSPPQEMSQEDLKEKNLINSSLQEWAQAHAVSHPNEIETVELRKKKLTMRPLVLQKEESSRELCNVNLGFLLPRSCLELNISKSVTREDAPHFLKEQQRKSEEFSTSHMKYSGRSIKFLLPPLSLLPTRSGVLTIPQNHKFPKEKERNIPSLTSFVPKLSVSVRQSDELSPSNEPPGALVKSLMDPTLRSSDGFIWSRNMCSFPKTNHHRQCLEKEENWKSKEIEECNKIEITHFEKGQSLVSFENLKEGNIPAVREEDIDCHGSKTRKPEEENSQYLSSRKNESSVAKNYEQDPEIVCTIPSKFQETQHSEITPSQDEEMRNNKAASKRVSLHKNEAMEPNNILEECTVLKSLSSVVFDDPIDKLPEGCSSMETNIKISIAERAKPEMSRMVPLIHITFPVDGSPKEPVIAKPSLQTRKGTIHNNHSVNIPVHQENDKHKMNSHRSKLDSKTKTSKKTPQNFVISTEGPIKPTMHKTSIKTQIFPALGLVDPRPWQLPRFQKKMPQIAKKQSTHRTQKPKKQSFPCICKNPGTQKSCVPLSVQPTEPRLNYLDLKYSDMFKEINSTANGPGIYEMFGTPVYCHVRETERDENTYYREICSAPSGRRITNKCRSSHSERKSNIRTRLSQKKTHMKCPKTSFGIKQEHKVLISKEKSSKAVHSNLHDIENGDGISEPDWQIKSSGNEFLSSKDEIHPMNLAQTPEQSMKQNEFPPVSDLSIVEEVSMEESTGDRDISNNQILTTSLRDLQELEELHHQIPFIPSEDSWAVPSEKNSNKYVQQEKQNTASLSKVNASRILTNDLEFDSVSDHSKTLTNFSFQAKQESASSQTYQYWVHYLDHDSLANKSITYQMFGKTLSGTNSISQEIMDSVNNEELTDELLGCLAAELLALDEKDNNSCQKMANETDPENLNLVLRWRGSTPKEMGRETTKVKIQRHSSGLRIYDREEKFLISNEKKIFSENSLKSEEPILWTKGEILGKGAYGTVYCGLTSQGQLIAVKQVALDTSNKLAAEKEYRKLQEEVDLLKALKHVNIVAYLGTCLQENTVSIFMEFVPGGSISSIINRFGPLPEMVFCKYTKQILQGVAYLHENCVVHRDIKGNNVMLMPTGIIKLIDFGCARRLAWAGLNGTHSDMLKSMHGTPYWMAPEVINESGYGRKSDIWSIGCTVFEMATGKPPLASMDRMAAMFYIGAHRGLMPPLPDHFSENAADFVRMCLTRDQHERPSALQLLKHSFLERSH

ZAP70 = ZAP70 (Homo sapiens, UniProt P43403); test: KINOMEscan: ZAP70; format: binding; conditions: 100 nM, read-out: Percent Control
BIKE = BIKE (Homo sapiens, UniProt Q9NSY1); test: KINOMEscan: BIKE; format: binding; conditions: 1000 nM, read-out: Percent Control
BTK = BTK (Homo sapiens, UniProt Q06187); test: KINOMEscan: BTK; format: binding; conditions: 1000 nM, read-out: Percent Control
CHEK1 = CHEK1 (Homo sapiens, UniProt O14757); test: KINOMEscan: CHEK1; format: binding; conditions: 1000 nM, read-out: Percent Control
DDR2 = DDR2 (Homo sapiens, UniProt Q16832); test: KINOMEscan: DDR2; format: binding; conditions: 1000 nM, read-out: Percent Control
EPHA3 = EPHA3 (Homo sapiens, UniProt P29320); test: KINOMEscan: EPHA3; format: binding; conditions: 1000 nM, read-out: Percent Control
Chain of EPHA3 (P29320 21-983): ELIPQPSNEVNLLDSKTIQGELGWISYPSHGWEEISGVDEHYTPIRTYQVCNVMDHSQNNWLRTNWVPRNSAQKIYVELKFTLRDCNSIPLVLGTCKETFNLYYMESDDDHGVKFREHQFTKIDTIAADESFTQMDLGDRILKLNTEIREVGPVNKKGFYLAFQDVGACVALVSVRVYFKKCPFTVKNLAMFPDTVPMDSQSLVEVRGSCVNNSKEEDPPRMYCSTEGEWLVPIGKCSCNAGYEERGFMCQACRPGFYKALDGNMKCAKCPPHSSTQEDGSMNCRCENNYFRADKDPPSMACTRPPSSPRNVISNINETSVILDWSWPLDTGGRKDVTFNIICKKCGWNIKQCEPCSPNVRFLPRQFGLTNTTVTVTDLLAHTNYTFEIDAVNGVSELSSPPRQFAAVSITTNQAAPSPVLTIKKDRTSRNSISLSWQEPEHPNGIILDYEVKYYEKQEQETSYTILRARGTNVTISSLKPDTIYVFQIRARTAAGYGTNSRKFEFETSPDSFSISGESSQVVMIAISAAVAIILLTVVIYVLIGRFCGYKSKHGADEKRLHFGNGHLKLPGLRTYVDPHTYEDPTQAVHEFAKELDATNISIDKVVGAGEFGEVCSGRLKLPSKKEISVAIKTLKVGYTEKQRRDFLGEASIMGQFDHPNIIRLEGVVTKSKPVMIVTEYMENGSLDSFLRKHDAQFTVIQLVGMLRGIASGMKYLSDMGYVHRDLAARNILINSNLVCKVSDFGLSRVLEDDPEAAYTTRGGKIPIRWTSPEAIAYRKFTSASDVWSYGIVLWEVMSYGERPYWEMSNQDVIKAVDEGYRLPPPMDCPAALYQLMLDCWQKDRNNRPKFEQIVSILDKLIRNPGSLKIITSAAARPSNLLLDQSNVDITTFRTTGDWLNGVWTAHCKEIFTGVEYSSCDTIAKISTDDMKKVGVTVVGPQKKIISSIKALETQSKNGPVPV

EPHA7 = EPHA7 (Homo sapiens, UniProt Q15375); test: KINOMEscan: EPHA7; format: binding; conditions: 1000 nM, read-out: Percent Control
FGFR3(G697C) = FGFR3(G697C) (Homo sapiens, UniProt P22607, G697C); test: KINOMEscan: FGFR3(G697C); format: binding; conditions: 1000 nM, read-out: Percent Control
FYN = FYN (Homo sapiens, UniProt P06241); test: KINOMEscan: FYN; format: binding; conditions: 1000 nM, read-out: Percent Control
GRK4 = GRK4 (Homo sapiens, UniProt P32298); test: KINOMEscan: GRK4; format: binding; conditions: 1000 nM, read-out: Percent Control
HCK = HCK (Homo sapiens, UniProt P08631); test: KINOMEscan: HCK; format: binding; conditions: 1000 nM, read-out: Percent Control
Chain of HCK (P08631 whole entry): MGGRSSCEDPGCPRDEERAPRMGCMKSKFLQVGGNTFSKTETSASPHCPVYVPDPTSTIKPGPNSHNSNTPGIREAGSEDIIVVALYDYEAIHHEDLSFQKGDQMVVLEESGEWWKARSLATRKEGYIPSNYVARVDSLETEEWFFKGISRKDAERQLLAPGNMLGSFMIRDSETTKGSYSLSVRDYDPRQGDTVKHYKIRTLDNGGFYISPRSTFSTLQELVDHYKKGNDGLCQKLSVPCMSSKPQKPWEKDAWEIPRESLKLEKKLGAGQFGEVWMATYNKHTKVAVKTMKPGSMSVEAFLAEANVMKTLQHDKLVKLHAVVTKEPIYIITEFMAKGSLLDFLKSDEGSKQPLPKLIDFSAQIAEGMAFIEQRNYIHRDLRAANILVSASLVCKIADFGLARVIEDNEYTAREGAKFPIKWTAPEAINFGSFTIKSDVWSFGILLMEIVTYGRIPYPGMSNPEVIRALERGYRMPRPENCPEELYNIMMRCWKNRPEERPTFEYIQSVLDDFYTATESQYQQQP

ICK = ICK (Homo sapiens, UniProt Q9UPZ9); test: KINOMEscan: ICK; format: binding; conditions: 1000 nM, read-out: Percent Control
ITK = ITK (Homo sapiens, UniProt Q08881); test: KINOMEscan: ITK; format: binding; conditions: 1000 nM, read-out: Percent Control
Chain of ITK (Q08881 whole entry): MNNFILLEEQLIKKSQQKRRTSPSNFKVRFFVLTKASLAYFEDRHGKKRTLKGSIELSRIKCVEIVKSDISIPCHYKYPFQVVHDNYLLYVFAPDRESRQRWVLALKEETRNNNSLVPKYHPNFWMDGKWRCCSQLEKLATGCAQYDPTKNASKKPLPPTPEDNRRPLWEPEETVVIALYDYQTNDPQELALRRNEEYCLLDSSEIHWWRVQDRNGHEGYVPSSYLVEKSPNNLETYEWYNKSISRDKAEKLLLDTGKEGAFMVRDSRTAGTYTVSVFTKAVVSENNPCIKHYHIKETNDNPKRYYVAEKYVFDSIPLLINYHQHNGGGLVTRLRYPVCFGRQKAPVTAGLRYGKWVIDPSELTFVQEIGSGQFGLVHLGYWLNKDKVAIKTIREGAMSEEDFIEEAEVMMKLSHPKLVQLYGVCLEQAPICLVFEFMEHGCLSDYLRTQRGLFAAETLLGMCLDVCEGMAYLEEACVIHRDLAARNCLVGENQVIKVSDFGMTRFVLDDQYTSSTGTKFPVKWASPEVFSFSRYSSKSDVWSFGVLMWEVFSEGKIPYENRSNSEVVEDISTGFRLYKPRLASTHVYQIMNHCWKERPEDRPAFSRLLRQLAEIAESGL

[3] = molecular target: JAK3(JH1domain-catalytic) (Homo sapiens, UniProt P52333); test: KINOMEscan: JAK3(JH1domain-catalytic); format: binding; conditions: 1000 nM, read-out: Percent Control
LIMK2 = LIMK2 (Homo sapiens, UniProt P53671); test: KINOMEscan: LIMK2; format: binding; conditions: 1000 nM, read-out: Percent Control
Chain of LIMK2 (P53671 whole entry): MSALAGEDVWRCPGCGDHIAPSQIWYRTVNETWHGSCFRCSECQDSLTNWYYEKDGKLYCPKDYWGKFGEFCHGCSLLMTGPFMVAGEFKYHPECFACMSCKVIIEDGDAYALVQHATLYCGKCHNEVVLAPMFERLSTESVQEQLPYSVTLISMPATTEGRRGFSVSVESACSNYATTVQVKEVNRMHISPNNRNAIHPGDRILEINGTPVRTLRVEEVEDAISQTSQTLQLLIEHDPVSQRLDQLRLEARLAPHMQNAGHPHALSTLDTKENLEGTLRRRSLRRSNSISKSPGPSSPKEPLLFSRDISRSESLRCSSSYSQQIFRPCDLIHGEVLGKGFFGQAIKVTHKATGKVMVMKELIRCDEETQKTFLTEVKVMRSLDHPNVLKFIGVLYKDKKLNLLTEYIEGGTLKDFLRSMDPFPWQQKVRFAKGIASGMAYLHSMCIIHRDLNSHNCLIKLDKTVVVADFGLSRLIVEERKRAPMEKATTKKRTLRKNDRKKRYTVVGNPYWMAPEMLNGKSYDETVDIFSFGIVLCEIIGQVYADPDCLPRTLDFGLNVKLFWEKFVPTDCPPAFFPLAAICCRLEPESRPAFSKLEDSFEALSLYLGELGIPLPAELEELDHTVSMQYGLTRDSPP

LOK = LOK (Homo sapiens, UniProt O94804); test: KINOMEscan: LOK; format: binding; conditions: 1000 nM, read-out: Percent Control
LYN = LYN (Homo sapiens, UniProt P07948); test: KINOMEscan: LYN; format: binding; conditions: 1000 nM, read-out: Percent Control
Chain of LYN (P07948 whole entry): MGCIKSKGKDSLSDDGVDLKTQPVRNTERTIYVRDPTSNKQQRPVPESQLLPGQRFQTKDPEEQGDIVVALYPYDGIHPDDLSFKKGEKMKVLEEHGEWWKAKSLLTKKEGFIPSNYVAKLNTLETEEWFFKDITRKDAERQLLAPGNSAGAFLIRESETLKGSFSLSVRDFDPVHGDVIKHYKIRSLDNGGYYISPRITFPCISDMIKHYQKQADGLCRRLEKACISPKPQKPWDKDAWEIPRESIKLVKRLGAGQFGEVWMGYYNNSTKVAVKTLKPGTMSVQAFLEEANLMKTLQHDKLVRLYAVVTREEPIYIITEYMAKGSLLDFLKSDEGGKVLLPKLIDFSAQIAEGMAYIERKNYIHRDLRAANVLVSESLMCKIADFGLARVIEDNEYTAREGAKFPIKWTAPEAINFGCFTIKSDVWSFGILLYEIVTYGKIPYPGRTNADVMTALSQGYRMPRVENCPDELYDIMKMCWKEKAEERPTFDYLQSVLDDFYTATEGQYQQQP

MAP3K2 = MAP3K2 (Homo sapiens, UniProt Q9Y2U5); test: KINOMEscan: MAP3K2; format: binding; conditions: 1000 nM, read-out: Percent Control
MAP3K3 = MAP3K3 (Homo sapiens, UniProt Q99759); test: KINOMEscan: MAP3K3; format: binding; conditions: 1000 nM, read-out: Percent Control
MAPKAPK2 = MAPKAPK2 (Homo sapiens, UniProt P49137); test: KINOMEscan: MAPKAPK2; format: binding; conditions: 1000 nM, read-out: Percent Control
Chain of MAPKAPK2 (P49137 whole entry): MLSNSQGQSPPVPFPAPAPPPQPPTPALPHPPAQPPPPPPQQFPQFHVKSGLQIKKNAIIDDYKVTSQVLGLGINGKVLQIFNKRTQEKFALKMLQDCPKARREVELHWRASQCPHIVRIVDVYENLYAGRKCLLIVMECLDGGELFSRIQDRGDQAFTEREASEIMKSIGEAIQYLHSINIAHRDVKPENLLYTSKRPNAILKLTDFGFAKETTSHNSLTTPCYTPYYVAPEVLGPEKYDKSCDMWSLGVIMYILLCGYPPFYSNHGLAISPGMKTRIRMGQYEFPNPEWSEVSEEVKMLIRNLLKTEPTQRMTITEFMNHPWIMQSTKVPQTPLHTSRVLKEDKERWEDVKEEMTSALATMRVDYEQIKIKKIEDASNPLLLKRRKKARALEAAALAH

MEK1 = MEK1 (Homo sapiens, UniProt Q02750); test: KINOMEscan: MEK1; format: binding; conditions: 1000 nM, read-out: Percent Control
MEK5 = MEK5 (Homo sapiens, UniProt Q13163); test: KINOMEscan: MEK5; format: binding; conditions: 1000 nM, read-out: Percent Control

COc1cc(F)ccc1-c1cc(Nc2cc(CS(C)(=N)=O)ccn2)ncc1F (centres unmarked) [VIP152]
IC50 (HG-3; Homo sapiens, 24, 48, and 72 h, read-out: proliferation IC50): 50 to 67 nM
IC50 (HG-3; Homo sapiens, two-hour drugging followed by washout, MTS after 72 h, read-out: 50% growth inhibition): 970 nM
inhibition at 10 µM (Adrenergic α1B): 18%
inhibition at 10 µM (Adrenergic α1D): 19%
inhibition at 10 µM (Bradykinin B2): 9%
inhibition at 10 µM [1]: -22%
remaining binding at 0.1 µM (PFCDPK1(P.falciparum)): 97%
remaining binding at 0.1 µM [2]: 100%
remaining binding at 0.1 µM (SGK): 100%
remaining binding at 0.1 µM (SLK): 91%
remaining binding at 0.1 µM (TXK): 100%
remaining binding at 0.1 µM (YANK2): 71%
remaining binding at 0.1 µM (YSK4): 100%
remaining binding at 0.1 µM (ZAP70): 99%
remaining binding at 1 µM (BIKE): 38%
remaining binding at 1 µM (BTK): 100%
remaining binding at 1 µM (CHEK1): 100%
remaining binding at 1 µM (DDR2): 27%
remaining binding at 1 µM (EPHA3): 89%
remaining binding at 1 µM (EPHA7): 100%
remaining binding at 1 µM (FGFR3(G697C)): 63%
remaining binding at 1 µM (FYN): 91%
remaining binding at 1 µM (GRK4): 26%
remaining binding at 1 µM (HCK): 82%
remaining binding at 1 µM (ICK): 9%
remaining binding at 1 µM (ITK): 100%
remaining binding at 1 µM [3]: 74%
remaining binding at 1 µM (LIMK2): 91%
remaining binding at 1 µM (LOK): 53%
remaining binding at 1 µM (LYN): 90%
remaining binding at 1 µM (MAP3K2): 57%
remaining binding at 1 µM (MAP3K3): 86%
remaining binding at 1 µM (MAPKAPK2): 81%
remaining binding at 1 µM (MEK1): 85%
remaining binding at 1 µM (MEK5): 52%
